In patent US20170152226A1, “FUNCTIONALISED AND SUBSTITUTED INDOLES AS ANTI-CANCER AGENTS” (Novogen Ltd., priority 2014, published 2017):
Where two headings read alike, the source gives them in different places.

Key:
Experiment in all cases: Anti-proliferative activity, cell-titre luminescent viability assay
Type in all cases: cell-based
[1] = test system: A549; settings: Homo sapiens, read-out: IC50 Lung (NSLC) A549
Description: (§1) The ability of compounds 3501-3540 and 3542-3545 to inhibit the proliferation of cancer cells representative of neuroblastoma, melanoma, prostate cancer, colorectal cancer, non-small cell lung carcinoma, and triple negative breast cancer was assessed. Briefly, a pre-determined number of cells as calculated from cell growth assays for each of the cell lines employed were seeded into their respective culture medium (using ATCC culture parameters—http://www.atcc.org) and cultured for 24 hours at 37° C. and 5% CO2 in 96-well culture plates. Once attached, each cell line was then exposed to increasing concentrations of each respective analogue (0.03, 0.3, 3 and 30 μM for compounds in Table 1; 0.1, 0.3, 1, 3, 10 and 30 μM for compounds in Table 2), cultured for a further 72 hours and exposed to cell-titre luminescent reagent (100 μL/well) for a further 30 min) to assess for cell viability. Luminescence was captured using an EnVision multilabel reader and the data for each analogue concentration was normalized, as a percentage, to the no treatment control. For compounds 3501, 3503, 3505-08, 3512-18, 3520, 3522-24 and 3531-36, semi-log plots of Percent of Control versus concentration were prepared and IC50 determined using linear regression analysis. For compounds 3502, 3504, 3509-11, 3519, 3521, 3525-30, 3537-40 and 3542-45, cell viability was normalized to control (vehicle alone) and dose-response curves, and half maximal effective concentration (EC50) values were determined using Graph Pad Prism 6 (nonlinear regression sigmoidal dose-response variable slope).

[2] = test system: CaCo2; settings: Homo sapiens, read-out: IC50 Colorectal CaCo2
Description: as §1

[3] = test system: DU145; settings: Homo sapiens, read-out: IC50 Prostate DU145
Description: as §1

[4] = test system: MDA-MB-231; settings: Homo sapiens, read-out: IC50 Breast MDA-MB-231
Description: as §1

[5] = test system: PC3; settings: Homo sapiens, read-out: IC50 Prostate PC3
Description: as §1

[6] = test system: SK-Mel-28; settings: Homo sapiens, SK-MEL-28, 72 hours, read-out: IC50 Melanoma SK-Mel-28
Description: as §1

[7] = test system: SK-N-SH; settings: Homo sapiens, SK-N-SH, read-out: IC50 Neuroblastoma SK-N-SH
Description: as §1

[8] = A549, 72 h, 0.03, 0.3, 3 and 30 μM, linear regression of semi-log plots
[9] = Caco-2, 72 h, 0.03, 0.3, 3 and 30 μM, linear regression of semi-log plots
[10] = DU-145, 72 h, 0.03, 0.3, 3 and 30 μM, linear regression of semi-log plots
[11] = MDA-MB-231, 72 h, 0.03, 0.3, 3 and 30 μM, linear regression of semi-log plots
[12] = PC-3, 72 h, 0.03, 0.3, 3 and 30 μM, linear regression of semi-log plots
[13] = 0.03, 0.3, 3 and 30 μM, linear regression of semi-log plots
[14] = 72 h, 0.03, 0.3, 3 and 30 μM, linear regression of semi-log plots
[15] = A549, 72 h, 0.1, 0.3, 1, 3, 10 and 30 μM, nonlinear regression sigmoidal dose-response (EC50)
[16] = Caco-2, 72 h, 0.1, 0.3, 1, 3, 10 and 30 μM, nonlinear regression sigmoidal dose-response (EC50)
[17] = DU-145, 72 h, 0.1, 0.3, 1, 3, 10 and 30 μM, nonlinear regression sigmoidal dose-response (EC50)
[18] = MDA-MB-231, 72 h, 0.1, 0.3, 1, 3, 10 and 30 μM, nonlinear regression sigmoidal dose-response (EC50)
[19] = PC-3, 72 h, 0.1, 0.3, 1, 3, 10 and 30 μM, nonlinear regression sigmoidal dose-response (EC50)
[20] = 0.1, 0.3, 1, 3, 10 and 30 μM, nonlinear regression sigmoidal dose-response (EC50)
[21] = 72 h, 0.1, 0.3, 1, 3, 10 and 30 μM, nonlinear regression sigmoidal dose-response (EC50)

Structure (SMILES) | IC50 [1, 8] [µM] | IC50 [2, 9] [µM] | IC50 [3, 10] [µM] | IC50 [4, 11] [µM] | IC50 [5, 12] [µM] | IC50 [6, 13] [µM] | IC50 [7, 14] [µM] | IC50 [1, 15] [µM] | IC50 [2, 16] [µM] | IC50 [3, 17] [µM] | IC50 [4, 18] [µM] | IC50 [5, 19] [µM] | IC50 [6, 20] [µM] | IC50 [7, 21] [µM]
Cc1c(C)n(CCCN2CCN(C)CC2)c2ccc(Cc3ccc(C(=O)N4CCN(CCc5ccc6ccccc6c5)CC4)cc3)cc12 [Compound 3542, (4-((2,3-dimethyl-1-(3-(4-methylpiperazin-1-yl)propyl)-1H-indol-5-yl)methyl)phenyl) (4-(2-(naphthalen-2-yl)ethyl)piperazin-1-yl)methanone] |  |  |  |  |  |  |  | 3.1 | 3.9 | 3.9 | 2.8 | 3.6 | 1.4 | 1.6
Cc1c(C)n(CCCN2CCN(C)CC2)c2ccc(Oc3ccc(C(=O)N4CCN(CCc5ccccc5)CC4)cc3)cc12 [Compound 3530] |  |  |  |  |  |  |  | 2.4 | 4.3 | 4.5 | 2.1 | 4.8 | 3.9 | 1.6
Cc1c(C)n(CCCN2CCN(C)CC2)c2ccc(Oc3ccc(C(=O)N4CCN(CCc5ccc(F)cc5)CC4)cc3)cc12 [Compound 3525, (4-((2,3-dimethyl-1-(3-(4-methylpiperazin-1-yl)propyl)-1H-indol-5-yl)oxy)phenyl)(4-(4-fluorophenethyl)piperazin-1-yl)methanone] |  |  |  |  |  |  |  | 3.8 | 4.1 | 4.1 | 4.3 | 4.5 | 1.7 | 1.9
Cc1c(C)n(CCCN2CCN(C)CC2)c2ccc(Nc3ccc(C(=O)N4CCN(CCc5ccc(F)cc5)CC4)cc3)cc12 [Compound 3531, (4-((2,3-dimethyl-1-(3-(4-methylpiperazin-1-yl)propyl)-1H-indol-5-yl)amino)phenyl)(4-(4-fluorophenethyl)piperazin-1-yl)methanone] | 3.9 | 4.2 | 3.9 | 3.5 | 4.6 | 2.8 | 3.4 |  |  |  |  |  |  | 
COc1cccc(CCN2CCN(C(=O)c3cccc(Oc4ccc5c(c4)c(C)c(C)n5CCCN4CCN(C)CC4)c3)CC2)c1 [Compound 3511, (3-((2,3-dimethyl-1-(3-(4-methylpiperazin-1-yl)propyl)-1H-indol-5-yl)oxy)phenyl)(4-(3-methoxyphenethyl)piperazin-1-yl)methanone] |  |  |  |  |  |  |  | 2.6 | 3.5 | 3.3 | 19.3 | 2.6 | 6.5 | 2.1
Cc1c(C)n(CCCN2CCN(C)CC2)c2ccc(Cc3ccc(C(=O)N4CCN(CCc5cccc6ccccc56)CC4)cc3)cc12 [Compound 3544, (4-((2,3-dimethyl-1-(3-(4-methylpiperazin-1-yl)propyl)-1H-indol-5-yl)methyl)phenyl)(4-(2-(naphthalen-1-yl)ethyl)piperazin-1-yl)methanone] |  |  |  |  |  |  |  | 5.7 | 13.5 | 9 | 8.2 | 8.1 | 7.2 | 7
Cc1c(C)n(CCCN2CCN(C)CC2)c2ccc(Cc3cccc(C(=O)N4CCN(CCc5ccc6c(c5)OCO6)CC4)c3)cc12 [Compound 3503, (4-(2-(benzo[d][1,3]dioxol-5-yl)ethyl)piperazin-1-yl)(3-((2,3-dimethyl-1-(3-(4-methylpiperazin-1-yl)propyl)-1H-indol-5-yl)methyl)phenyl)methanone] | 1.4 | 3.4 | 2.1 | 1 | 2.4 | 1 | 2.1 |  |  |  |  |  |  | 

Results, then the compound that gave them:

IC50 [1, 8] [µM] | IC50 [2, 9] [µM] | IC50 [3, 10] [µM] | IC50 [4, 11] [µM] | IC50 [5, 12] [µM] | IC50 [6, 13] [µM] | IC50 [7, 14] [µM] | IC50 [1, 15] [µM] | IC50 [2, 16] [µM] | IC50 [3, 17] [µM] | IC50 [4, 18] [µM] | IC50 [5, 19] [µM] | IC50 [6, 20] [µM] | IC50 [7, 21] [µM] | Structure (SMILES)
3.7 | 3.1 | 2.6 | 2.1 | 2.4 | 1.3 | 3.1 |  |  |  |  |  |  |  | Cc1c(C)n(CCCN2CCN(C)CC2)c2ccc(Cc3cccc(C(=O)N4CCN(CCc5ccc(F)cc5)CC4)c3)cc12 [Compound 3501, (3-((2,3-dimethyl-1-(3-(4-methylpiperazin-1-yl)propyl)-1H-indol-5-yl)methyl)phenyl)(4-(4-fluorophenethyl)piperazin-1-yl)methanone]
0.9 | 1.7 | 1.8 | 1.1 | 0.9 | 1.1 | 1.4 |  |  |  |  |  |  |  | Cc1c(C)n(CCCN2CCN(C)CC2)c2ccc(Cc3ccc(C(=O)N4CCN(CCc5ccccc5)CC4)cc3)cc12 [Compound 3524, (4-((2,3-dimethyl-1-(3-(4-methylpiperazin-1-yl)propyl)-1H-indol-5-yl)methyl)phenyl)(4-phenethylpiperazin-1-yl)methanone]
4.4 | > 30 | 7.1 | 5.3 | 21.1 | 3.7 | 4.5 |  |  |  |  |  |  |  | COc1cccc(CCN2CCN(C(=O)c3cccc(Nc4ccc5c(c4)c(C)c(C)n5CCCN4CCN(C)CC4)c3)CC2)c1 [Compound 3517, (3-((2,3-dimethyl-1-(3-(4-methylpiperazin-1-yl)propyl)-1H-indol-5-yl)amino)phenyl)(4-(3-methoxyphenethyl)piperazin-1-yl)methanone]
 |  |  |  |  |  |  | 5.9 | 6 | 5.7 | 6.6 | 6.3 | 4.1 | 4.2 | Cc1c(C)n(CCCN2CCN(C)CC2)c2ccc(Cc3ccc(C(=O)N4CCN(CCc5ccc6c(c5)OCO6)CC4)cc3)cc12 [Compound 3521, (4-(2-(benzo[d][1,3]dioxol-5-yl)ethyl)piperazin-1-yl)(4-((2,3-dimethyl-1-(3-(4-methylpiperazin-1-yl)propyl)-1H-indol-5-yl)methyl)phenyl)methanone]
3.1 | 3.6 | 3.4 | 2.8 | 2.6 | 2.5 | 2.6 |  |  |  |  |  |  |  | COc1cccc(CCN2CCN(C(=O)c3cccc(Cc4ccc5c(c4)c(C)c(C)n5CCCN4CCN(C)CC4)c3)CC2)c1 [Compound 3505, (3-((2,3-dimethyl-1-(3-(4-methylpiperazin-1-yl)propyl)-1H-indol-5-yl)methyl)phenyl)(4-(3-methoxyphenethyl)piperazin-1-yl)methanone]
1.4 | 3.1 | 2.1 | 1.1 | 2.4 | 0.8 | 2.1 |  |  |  |  |  |  |  | COc1cccc(CCN2CCN(C(=O)c3ccc(Cc4ccc5c(c4)c(C)c(C)n5CCCN4CCN(C)CC4)cc3)CC2)c1 [Compound 3523, (4-((2,3-dimethyl-1-(3-(4-methylpiperazin-1-yl)propyl)-1H-indol-5-yl)methyl)phenyl)(4-(3-methoxyphenethyl)piperazin-1-yl)methanone]
 |  |  |  |  |  |  | 6 | 5.8 | 8 | 20.4 | 8 | 4.9 | 4.6 | Cc1c(C)n(CCCN2CCN(C)CC2)c2ccc(Oc3cccc(C(=O)N4CCN(CCc5cccc(F)c5)CC4)c3)cc12 [Compound 3510, (3-((2,3-dimethyl-1-(3-(4-methylpiperazin-1-yl)propyl)-1H-indol-5-yl)oxy)phenyl)(4-(3-fluorophenethyl)piperazin-1-yl)methanone]
